Experiments:
[1] = tested on: mechanical hypersensitivity in spared nerve injury (SNI) mice; assay: Von Frey mechanical thresholds in the spared nerve injury (SNI) model; type: in vivo, C57BL/6J mice; settings: day 7 after surgery, single oral dose: 20 mg/kg pure CBD or THC, 40 mg/kg THC+ extract, 1560 mg/kg THC- extract, CBD effect at 4 h, p = 0.022 vs vehicle
Method: SNI surgery was performed as previously described. In short, mice were anesthetized by intraperitoneal (i.p.) injections of 10 mg/kg Xylazine (AniMedica GmbH—a LIVISTO company, Senden, Germany) and 100 mg/kg Ketamine (AniMedica GmbH—a LIVISTO company, Senden, Germany). The skin on the lateral surface of the thigh was incised and the sciatic nerve exposed by separating the biceps femoris muscle through incision of the connective tissue without wounding the muscle. The common peroneal and tibial nerves were ligated with 4-0 Vicryl (Sh-1 plus; Raritan, NJ, USA) and a portion of 3 mm length was excised around the ligation site. Care was taken to avoid any mechanical damage to the sural nerve. After dissection, the muscle and skin were sutured using 4-0 Vicryl. Mice were left to recover at 37 °C until they regained consciousness.
The von Frey test was performed as previously described. In brief, mice were placed in a Plexiglas chamber on an elevated iron-mesh floor and allowed to habituate before testing. […] Withdrawal thresholds were calculated according to the up-and-down method. Von Frey results were analysed using repeated measure ANOVA.

[2] = design: method as in PMID 21796370; settings: CBD orally given to mice; cited from earlier work
[3] = design: method as in PMID 12648025, PMID 17712819, PMID 30534073; settings: cited from earlier work
[4] = Cannabinoid and metabolite concentrations in plasma, brain and spinal cord after single oral gavage (LC-MS/MS, non-compartmental PK); settings: mice
[5] = high dose, oral gavage (40 mg/kg THC+ extract, 20 mg/kg pure THC), plasma, brain and spinal cord

Row | Structure (SMILES) | effect on mechanical withdrawal thresholds (von Frey) [1] | brain–plasma ratio [2] | time detectable in organs including the brain after application [3] | time of maximum CBD concentration ([4]; pure CBD compound, 1 and 20 mg/kg bodyweight, oral) | absorption rate of CBD compared with THC, brain ([4]; pure compounds, oral, brain) | absorption rate of CBD compared with THC, spinal cord ([4]; pure compounds, oral, spinal cord) | time of peak concentration of OH-THC ([4]; high dose, oral (40 mg/kg THC+ extract, 20 mg/kg pure THC), brain tissue) | time at which Δ9-THC was detectable in all tissues [4, 5] | time of maximum Δ9-THC concentration [4, 5] | Δ9-THC concentrations in all sample types ([4]; low dose, oral gavage (2 mg/kg THC+ extract, 1 mg/kg pure THC), plasma, brain and spinal cord)
1 | C=C(C)[C@@H]1CCC(C)=C[C@H]1c1c(O)cc(CCCCC)cc1O [CBD, cannabidiol] | alleviated mechanical hypersensitivity | 3.54 | more than 24 h | 2 h | 2.8 fold | 1.7 fold | – | – | – | –
2 | CCCCCc1cc(O)c2c(c1)OC(C)(C)[C@@H]1CCC(C)=C[C@@H]21 [pure THC, Δ9-Tetrahydrocannabinol] | did not affect mechanical withdrawal thresholds | – | more than 24 h | – | – | – | 2 h | 1 h | 2 h | negligible concentrations

From article PMC10057980, “Pharmacokinetics of Orally Applied Cannabinoids and Medical Marijuana Extracts in Mouse Nervous Tissue and Plasma: Relevance for Pain Treatment” (Pharmaceutics, 2023)
